Assay results: patent US20210198277A1, “AMINE-SUBSTITUTED ARYL OR HETEROARYL COMPOUNDS” (Epizyme, Inc., priority 2016, published 2021)

Tests used:
human EHMT2 913-1193 = target: T1, human EHMT2 913-1193 (Homo sapiens, UniProt Q96KQ7); assay: EHMT2 enzyme assay on histone peptide substrate (EHMT2 PEP); assay type: biochemical; details: Table VI; read-out: EHMT2 PEP IC50
T1 construct: recombinant purified human EHMT2 913-1193, Viva; purchased Viva
T1 sequence (Q96KQ7 913-1193): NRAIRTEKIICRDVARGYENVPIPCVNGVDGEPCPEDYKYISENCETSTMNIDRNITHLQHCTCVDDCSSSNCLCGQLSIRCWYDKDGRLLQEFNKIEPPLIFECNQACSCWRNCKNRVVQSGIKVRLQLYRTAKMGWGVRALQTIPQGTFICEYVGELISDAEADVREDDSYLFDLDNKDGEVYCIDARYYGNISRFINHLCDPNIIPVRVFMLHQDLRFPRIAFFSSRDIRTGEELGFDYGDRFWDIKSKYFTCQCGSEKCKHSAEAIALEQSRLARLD
How it was run: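 Compounds (10-point, 3-fold dilutions, top 50 μM final, 2% DMSO) preincubated 30 min with 0.031 nM EHMT2 in 20 mM Bicine pH 7.5, 0.002% Tween 20, 0.005% gelatin, 1 mM TCEP. Biotinylated histone peptide methylated with ^3H-SAM 60 min at room temperature. Quenched with unlabeled SAM; product captured on streptavidin Flashplate, scintillation counted.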

EHMT1 = target: T2, EHMT1 (Homo sapiens, UniProt Q9H9B1); assay: EHMT1 enzyme assay on peptide substrate (EHMT1 PEP); assay type: biochemical; details: Table VI; read-out: EHMT1 PEP IC50
T2 sequence (Q9H9B1 1-1298): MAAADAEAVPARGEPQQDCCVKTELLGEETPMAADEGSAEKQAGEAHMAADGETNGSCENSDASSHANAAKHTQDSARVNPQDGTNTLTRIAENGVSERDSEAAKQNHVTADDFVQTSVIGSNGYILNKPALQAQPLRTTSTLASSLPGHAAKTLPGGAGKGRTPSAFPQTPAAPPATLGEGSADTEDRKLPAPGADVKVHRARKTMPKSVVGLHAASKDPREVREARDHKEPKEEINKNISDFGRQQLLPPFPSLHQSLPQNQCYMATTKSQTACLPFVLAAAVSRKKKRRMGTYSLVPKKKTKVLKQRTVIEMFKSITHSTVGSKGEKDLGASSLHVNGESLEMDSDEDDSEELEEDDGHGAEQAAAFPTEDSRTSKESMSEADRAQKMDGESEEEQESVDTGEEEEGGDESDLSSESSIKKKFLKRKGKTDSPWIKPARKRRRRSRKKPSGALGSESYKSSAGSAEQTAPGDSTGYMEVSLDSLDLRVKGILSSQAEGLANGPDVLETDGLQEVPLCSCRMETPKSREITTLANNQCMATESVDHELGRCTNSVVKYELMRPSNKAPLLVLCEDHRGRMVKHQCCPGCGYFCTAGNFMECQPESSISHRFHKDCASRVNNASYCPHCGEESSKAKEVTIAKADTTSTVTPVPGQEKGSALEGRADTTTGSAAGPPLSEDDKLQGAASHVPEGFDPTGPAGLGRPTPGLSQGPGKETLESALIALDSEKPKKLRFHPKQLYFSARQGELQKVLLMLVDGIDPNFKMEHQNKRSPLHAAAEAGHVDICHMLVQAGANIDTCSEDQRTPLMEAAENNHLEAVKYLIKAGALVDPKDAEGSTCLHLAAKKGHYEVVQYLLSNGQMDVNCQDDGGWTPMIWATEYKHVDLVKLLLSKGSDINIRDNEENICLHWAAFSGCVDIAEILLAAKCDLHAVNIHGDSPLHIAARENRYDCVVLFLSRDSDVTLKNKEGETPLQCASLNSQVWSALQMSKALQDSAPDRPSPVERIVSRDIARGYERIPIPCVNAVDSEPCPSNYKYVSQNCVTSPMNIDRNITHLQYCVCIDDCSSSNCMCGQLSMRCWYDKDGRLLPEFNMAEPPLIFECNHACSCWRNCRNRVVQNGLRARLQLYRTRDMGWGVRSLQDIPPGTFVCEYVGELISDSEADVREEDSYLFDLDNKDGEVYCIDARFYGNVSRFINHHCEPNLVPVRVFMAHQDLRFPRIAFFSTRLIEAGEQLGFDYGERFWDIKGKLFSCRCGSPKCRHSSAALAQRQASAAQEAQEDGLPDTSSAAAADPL

| IC50 (human EHMT2 913-1193) | IC50 (EHMT1) | SMILES |
| --- | --- | --- |
| > 10000 nM | 1000 to 10000 nM | CCN1CCO[C@@H](COc2cc(Nc3nccc(NC)n3)ccc2OC)C1 [Compound 932] |
| > 10000 nM | 1000 to 10000 nM | CNc1ccnc(Nc2ccc(OC)c(OC[C@H]3CNCCO3)c2)n1 [Compound 933] |
| > 10000 nM | > 10000 nM | CNc1ccnc(Nc2ccc(OC)c(OC[C@@H]3CN(C)CCO3)c2)n1 [Compound 936] |
| > 10000 nM | > 10000 nM | CCN1CCO[C@H](COc2cc(Nc3nccc(NC)n3)ccc2OC)C1 [Compound 937] |
| > 10000 nM | > 10000 nM | CNc1ccnc(Nc2ccc(OC)c(OC[C@@H]3CNCCO3)c2)n1 [Compound 938] |
| 1000 to 10000 nM | 1000 to 10000 nM | CNc1ccnc(Nc2ccc(OC)c(OC[C@@H](C)CN3CCC3)c2)n1 [Compound 943] |
| 100 to 1000 nM | < 100 nM | CNc1ccnc(Nc2ccc(OC)c(OC[C@H](C)CN3CCC3)c2)n1 [Compound 945] |
| < 100 nM | < 100 nM | CCN1CC[C@@H](COc2cc(Nc3nc(C)cc4[nH]ncc34)ncc2OC)C1 [Compound 947] |
| 100 to 1000 nM | < 100 nM | CNc1cc(C)nc(Nc2cnc(OC)c(OCCCN3CCC3)c2)n1 [Compound 949] |
| 100 to 1000 nM | 100 to 1000 nM | COc1cc2c(C3CCN(C)CC3)nc(N3CCCC3)nc2cc1OCCCN1CC(O)C1 [Compound 950] |
| 100 to 1000 nM | < 100 nM | CCN1CC(COc2cc3nc(NC)nc(C4CCN(C)CC4)c3cc2OC)C1 [Compound 951] |
| 1000 to 10000 nM | 1000 to 10000 nM | CNc1nc(C2=CC(C)(C)NC(C)(C)C2)c2cc(OC)c(OCCCN3CCCC3)cc2n1 [Compound 961] |
| 100 to 1000 nM | 100 to 1000 nM | CNc1cc(C)nc(Nc2ccc(OC)c(OC[C@H](O)CNC3CCC3)c2)n1 [Compound 962] |
| < 100 nM | < 100 nM | CNc1cc(C)nc(Nc2cnc(OC)c(OC[C@H](O)CN3CCC3)c2)n1 [Compound 963] |
| 100 to 1000 nM | < 100 nM | CNCCNCc1cc(Nc2nc(C)cc(NC)n2)ccc1OC [Compound 964] |
| < 100 nM | < 100 nM | CNc1cc(C)nc(Nc2ccc(OC)c(CNCCN3CCC3)c2)n1 [Compound 965] |
| 100 to 1000 nM | < 100 nM | CNc1ccnc(Nc2cnc(OC)c(OC[C@@H]3CCN(C4CCC4)C3)n2)n1 [Compound 974] |
| 100 to 1000 nM | < 100 nM | CNc1cc(C)nc(Nc2ccc(OC)c(OC[C@H](O)CN3CC(C)C3)c2)n1 [Compound 985] |
| 100 to 1000 nM | 100 to 1000 nM | CNc1cc(C)nc(Nc2ccc(OC)c(OC[C@H](O)CN3CC(F)C3)c2)n1 [Compound 986] |
| < 100 nM | < 100 nM | CNc1cc(C)nc(Nc2ccc(OC)c(CNCCN(C)C)c2)n1 [Compound 990] |
| 1000 to 10000 nM | 1000 to 10000 nM | CNc1ccnc(Nc2ccc(OC)c(OCC(C)(O)CN3CCC3)c2)n1 (centres unmarked) [Compound 1005] |
| 100 to 1000 nM | < 100 nM | CCN1CCC(O)(COc2cc(Nc3nccc(NC)n3)ccc2OC)C1 (centres unmarked) [Compound 1006] |
| > 10000 nM | 1000 to 10000 nM | CCN1CCC(O)(COc2cc(Nc3nccc(NC)n3)ccc2OC)C1 (centres unmarked) [Compound 1007] |
| 100 to 1000 nM | < 100 nM | CNc1ccnc(Nc2ccc(OC)c(OCC(C)CN3CCC3)c2)n1 (centres unmarked) [Compound 1008] |
| 1000 to 10000 nM | 1000 to 10000 nM | CNCC(C)COc1cc(Nc2nccc(NC)n2)ccc1OC (centres unmarked) [Compound 1009] |
| 1000 to 10000 nM | 1000 to 10000 nM | CNCCC(C)Oc1cc(Nc2nccc(NC)n2)ccc1OC (centres unmarked) [Compound 1011] |
| 1000 to 10000 nM | 100 to 1000 nM | CNc1ccnc(Nc2ccc(OC)c(OCCC(C)N3CCC3)c2)n1 (centres unmarked) [Compound 1014] |
| 1000 to 10000 nM | 100 to 1000 nM | CNc1ccnc(Nc2ccc(OC)c(OCCC(C)NC)c2)n1 (centres unmarked) [Compound 1016] |
